# Patent publication US8206732B2, “Pyrithione biocides enhanced by silver, copper, or zinc ions” (Arch Chemicals, Inc., priority 1999, dated 2012)
# Values joined by “and” are separate entries in the source; they are usually repeats but may differ in a detail not shown here. Equal values may be shown once.
# Assays:
# Fusarium sp. = test: MIC in Tryptic Soy Broth, microtiter (Example 1); format: cell-based; settings: TSB with 0.5 ppm Cu (II), 28° C., 5 days
# Protocol: Equal volumes of bacterial suspension (10^6 bacteria per milliliter of TSB) containing Pseudomonas aeruginosa ATCC 9027 or fungal spore suspension (10^5 spores per milliliter of TSB) containing Aspergillus niger ATCC 6275 or species of Fusarium and Cephalosporium isolated from contaminated metalworking fluid were added to each microtiter plate well, and the plates were incubated at 28° C. Controls were prepared for cultures inoculated into TSB with and without Cu (II).
# [1] = tested on: Fusarium sp. and Cephalosporium sp.; test: Various mixtures of NaPT and Zn(II) against fungi in 5% metalworking fluid (Example 8, Table 10b); format: cell-based
# [2] = tested on: Staphylococcus aureus ATCC 27217; test: Checkerboard MIC test, pyrithiones with zinc salts; format: cell-based; settings: pyrithione alone or pyrithione concentration in the inhibitory mixture; TSB, 28 C, 3 days
# [3] = tested on: Fusarium sp. free-living cells; test: Viable free-living cells in bulk metalworking fluid (Example 5); format: cell-based; settings: 100 PPM NaPT, 10 PPM Zn (II) or both, 4 days after treatment
# Protocol: Experiments were conducted to investigate the efficacy of the composition of the present invention to inhibit the survival, growth, and proliferation of free-living and biofilm populations of bacteria and fungi in metalworking fluids. […] Metalworking fluids (MWF) employed included 5% soluble oil MWF, 5% semi-synthetic MWF, or 5% synthetic MWS. For testing against bacteria, metalworking fluids were supplemented with 2% (weight-to-weight ratio (w:w)) of 5 g/L yeast extract (Difco), Metalworking fluids were supplemented with 2% (weight-to-weight (w:w)) of Tryptic Soy Broth (Difco) for fungal tests.
# For each experiment, three ml of a 5% metalworking fluid was added to each of twelve, sterile, 16 mm×150 mm glass culture tubes. […] Fusarium sp. was added to the tubes to final concentrations of 10^5 spores/ml for the fungal tests. Tubes incubated for 3 days at 28° C. and 180 rpms.
# After the treatments additions were performed, the culture tubes resumed incubation at 28° C., 180 rpms for an additional 4 days.
# After 4 days, culture tubes were removed from the incubator and viable counts of organisms from the bulk MWF fluid and the biofilm were determined using serial dilution and drop plating techniques. For biofilms, polycarbonate discs were removed from tubes, dip-rinsed in three successive washes of de-ionized water to remove loosely attached cells, and transferred to 25 mm×150 mm culture tubes containing 10 ml of sterile, de-ionized water. Biofilms were removed from discs and resuspended by vortexing tubes for 30 seconds. Bacteria were plated on to R2A Agar plates and incubated at 37° C. Fungi were plated onto Malt Agar plates and incubated at 28° C. Mean colony forming units per ml (for bulk) and per square cm (cm^2) biofilm were determined for each experimental treatment.
# Pityrosporum ovale 1452 = test: Checkerboard MIC test, pyrithiones with silver salts; format: cell-based; settings: NaPT alone or in the inhibitory mixture with silver salt; Ushijima Medium pH 5.5, 35° C., 1 to 2 days
# [4] = tested on: Staphylococcus aureus 27217; test: as above; format: cell-based; settings: NaPT alone or in the inhibitory mixture with silver salt; TSB pH 7.3, 35° C., 1 to 2 days
# [5] = tested on: P. aeruginosa 9027 free-living cells; test: Viable free-living cells in bulk metalworking fluid (Example 5); format: cell-based, Pseudomonas aeruginosa; settings: 100 PPM NaPT; for viable free-living cells in the bulk fluid: 5% soluble oil MWF, 2.5 PPM Zn(II) or both, 4 days
# Candida albicans 10251 = test: Checkerboard MIC test, pyrithiones with silver salts; format: cell-based; settings: NaPT alone or in the inhibitory mixture with silver salt; TSB pH 7.3, 35° C., 1 to 2 days
compound,measurement,setting,value
"[Na+].[O-][n+]1ccccc1[S-] [NaPT, sodium pyrithione]",MIC NaPT (with 0.5 ppm Cu),Fusarium sp.,8 ppm
same,Fungi/ml,"[1]; semi-synthetic, NaPT 100 PPM, Day 1",1.1 × 10^4 Fungi/ml
same,Fungi/ml,"[1]; semi-synthetic, NaPT 100 PPM, Day 1, tube of the Day 1/Day 4 series",2.0 × 10^4 Fungi/ml
same,Fungi/ml,"[1]; semi-synthetic, NaPT 100 PPM, Day 2",1.3 × 10^3 Fungi/ml
same,Fungi/ml,"[1]; semi-synthetic, NaPT 100 PPM, Day 4",1.0 × 10^4 Fungi/ml
same,Fungi/ml,"[1]; semi-synthetic, NaPT 100 PPM, Day 7",0 Fungi/ml
same,Fungi/ml,"[1]; semi-synthetic, NaPT 300 PPM, Day 1",3.0 × 10^3 Fungi/ml
same,Fungi/ml,"[1]; semi-synthetic, NaPT 300 PPM, Day 2",570 Fungi/ml
same,Fungi/ml,"[1]; semi-synthetic, NaPT 300 PPM, Day 7",0 Fungi/ml
same,Fungi/ml,"[1]; semi-synthetic, NaPT 500 PPM, Day 1",9.0 × 10^3 Fungi/ml
same,Fungi/ml,"[1]; semi-synthetic, NaPT 500 PPM, Day 2",300 Fungi/ml
same,Fungi/ml,"[1]; semi-synthetic, NaPT 500 PPM, Day 7",0 Fungi/ml
same,Fungi/ml,"[1]; soluble oil, NaPT 100 PPM, Day 1",3.2 × 10^4 Fungi/ml
same,Fungi/ml,"[1]; soluble oil, NaPT 100 PPM, Day 1, tube of the Day 1/Day 4 series",3.6 × 10^4 Fungi/ml
same,Fungi/ml,"[1]; soluble oil, NaPT 100 PPM, Day 2",2.9 × 10^4 Fungi/ml
same,Fungi/ml,"[1]; soluble oil, NaPT 100 PPM, Day 4",2.9 × 10^4 Fungi/ml
same,Fungi/ml,"[1]; soluble oil, NaPT 100 PPM, Day 7",1.5 × 10^4 Fungi/ml
same,Fungi/ml,"[1]; soluble oil, NaPT 300 PPM, Day 1",1.7 × 10^4 Fungi/ml
same,Fungi/ml,"[1]; soluble oil, NaPT 300 PPM, Day 2",1.0 × 10^4 Fungi/ml
same,Fungi/ml,"[1]; soluble oil, NaPT 300 PPM, Day 7",560 Fungi/ml
same,Fungi/ml,"[1]; soluble oil, NaPT 500 PPM, Day 1",1.9 × 10^4 Fungi/ml
same,Fungi/ml,"[1]; soluble oil, NaPT 500 PPM, Day 2",2.8 × 10^4 Fungi/ml
same,Fungi/ml,"[1]; soluble oil, NaPT 500 PPM, Day 7",610 Fungi/ml
same,Fungi/ml,"[1]; synthetic, NaPT 100 PPM, Day 1",3.0 × 10^4 Fungi/ml
same,Fungi/ml,"[1]; synthetic, NaPT 100 PPM, Day 1, tube of the Day 1/Day 4 series",9.0 × 10^3 Fungi/ml
same,Fungi/ml,"[1]; synthetic, NaPT 100 PPM, Day 2",2.0 × 10^3 Fungi/ml
same,Fungi/ml,"[1]; synthetic, NaPT 100 PPM, Day 4",5.0 × 10^3 Fungi/ml
same,Fungi/ml,"[1]; synthetic, NaPT 100 PPM, Day 7",2.0 × 10^3 Fungi/ml
same,Fungi/ml,"[1]; synthetic, NaPT 300 PPM, Day 1",2.9 × 10^4 Fungi/ml
same,Fungi/ml,"[1]; synthetic, NaPT 300 PPM, Day 2",2.1 × 10^4 Fungi/ml
same,Fungi/ml,"[1]; synthetic, NaPT 300 PPM, Day 7",1.2 × 10^4 Fungi/ml
same,Fungi/ml,"[1]; synthetic, NaPT 500 PPM, Day 1",2.7 × 10^4 Fungi/ml
same,Fungi/ml,"[1]; synthetic, NaPT 500 PPM, Day 2",4.0 × 10^3 Fungi/ml
same,Fungi/ml,"[1]; synthetic, NaPT 500 PPM, Day 7",3.0 × 10^3 Fungi/ml
same,MIC Pyrithione,[2],4 ppm
same,viable free-living microorganisms,[3]; 5% semisynth. MWF,2.8 × 10^5 cells/ml
same,viable free-living microorganisms,[3]; 5% solub. oil MWF,4.2 × 10^6 cells/ml
same,viable free-living microorganisms,[3]; 5% synthetic MWF,6.0 × 10^6 cells/ml
same,viable free-living microorganisms,[3]; 100% TSB,0 cells/ml
same,MIC NaPT,Pityrosporum ovale 1452,4 ppm
same,MIC NaPT,[4],4 ppm and 8 ppm
same,viable free-living cells in the bulk fluid,[5]; tube with Polycarbonate surface,4.9 × 10^5 cells/ml
same,viable free-living cells in the bulk fluid,[5]; tube with Rubber surface,50 cells/ml
same,viable free-living cells in the bulk fluid,[5]; tube with Steel surface,3.5 × 10^6 cells/ml
same,viable free-living microorganisms,"[5]; 5% synthetic MWF, 10 PPM Zn (II) or both, 4 days after treatment",7.8 × 10^6 cells/ml and 7.0 × 10^5 cells/ml and 5.4 × 10^5 cells/ml
same,MIC NaPT,Candida albicans 10251,16 ppm
